Values after ≈ are worked out from the molar mass of the structure shown. Read-outs that look alike come from different tables or passages of the source.
How the values were obtained:
colon 38 cells = assay: In vitro antitumor test against colon 38 cells (MTT); format: cell-based; details: 72 h, concentration at which 50% of mouse colon 38 cells are inhibited, 3 days
Method: In vitro Antitumor Test Against Colon 38 Cells (Mouse Colon Cancer Cells)
2.5×10^3 (0.1 ml) of colon 38 cells suspended in RPMI1640 medium (a product of Sanko Junyaku) containing 10% of fetal bovine serum, penicillin (100 units/ml), streptomycin (100 μg/ml), mercaptoethanol (5×10^-5 M) and sodium pyruvate (1 mM) were inoculated in each well of a 96-well flat-bottomed microplate, and cultured in an incubator containing 5% of carbon dioxide at 37° C. for one day.
A test compound according to the present invention was dissolved in dimethyl sulfoxide in a concentration of 20 mg/ml and the resulting solution was diluted with 10% fetal bovine serum/RPMI1640 medium to a concentration of 200 μg/ml. The resulting solution was diluted with 10% fetal bovine serum/RPMI1640 medium to prepare 3-fold serial dilutions with the maximum concentration being 200 μg/ml. The obtained dilutions were each poured into the well of the above-described culture plate in an amount of 0.1 ml. The resulting plate was cultured at 37° C. in an incubator containing 5% of carbon dioxide for 3 days.
Thereafter, a solution of MTT[3-(4,5-dimethylthiazol-2-yl)-2,5-diphenyltetrazolium bromide] (having a concentration of 3.3 mg/ml) was added to each well in an amount of 0.05 ml. The resulting mixtures were further incubated for 2 hours. The supernatant was removed from each well by suction. Formed formazan was dissolved in 0.1 ml of dimethyl sulfoxide. The absorbance at 540 nm was determined with a microplate reader and the absorbance was taken as an index of the number of viable cells. The inhibitory ratio of the test compound was calculated according to the following formula to determine the IC50 of the test compound, with the IC50 referring to the concentration at which 50% of mouse colon 38 cells are inhibited: [formula] T: absorbance of well containing a test compound C: absorbance of well containing no test compound

colon 38 = format: in vivo, mouse; details: once a day for 8 days, BDF1 mice, tumor weight on 21st day
Method: In vivo Antitumor Test Against Colon 38 (Mouse Colon Cancer)
About 75 mg of colon 38 was subcutaneously transplanted to the flank of each BDF1 mouse (aged 7 weeks, female). A test compound according to the present invention was suspended in a physiological saline containing 3.5% of dimethyl sulfoxide and 6.5% of Tween 80 and the obtained suspension was intraperitoneally administered to the mice in a predetermined dose once a day for 8 days from the next day of transplantation. On the other hand, only a physiological saline containing 3.5% of dimethyl sulfoxide and 6.5% of Tween 80 was intraperitoneally administered to the mice of the control group. The control group was composed of ten mice, while each treated group was composed of six mice.
On the 21st day after the transplantation, the tumor was extirpated from each mouse to determine its weight. The tumor growth inhibition ratio was determined by the following formula: [formula] T: average weight of tumor of the treated group C: average weight of tumor of the control group

HCT116 = assay: animal or person; details: Mus musculus, HCT-116, ip, 504 h, once a day for 4 days, nude mice, tumor weight on 21st day, read-out: Growth inhibition ratio
From the text: In vivo Antitumor Test Against HCT116 (Human Colon Cancer)
HCT116 (5 to 8×10^6) was subcutaneously transplanted to the flank of each nude mouse (BALB/c·nu/nu, aged 7 to 8 weeks, female). A test compound according to the present invention was suspended in a physiological saline containing 3.5% of dimethyl sulfoxide and 6.5% of Tween 80 and the obtained suspension was intraperitoneally administered to the mice treated above once a day in a predetermined dose for 4 days after the time at which the tumor volume had increased to about 100 mm^3, which was about 7 days after the transplantation. On the other hand, only a physiological saline containing 3.5% of dimethyl sulfoxide and 6.5% of Tween 80 was intraperitoneally administered to the mice of the control group. The control group was composed of ten mice, while each treated group was composed of five mice. On the 21st day after the initiation of administration, the tumor was extirpated from each mouse to determine its weight. The tumor growth inhibition ratio was determined by the following formula: [formula] T: average weight of tumor of the treated group C: average weight of tumor of the control group

Row | IC50 (colon 38 cells) [µg/mL] | SMILES | Growth inhibition ratio (colon 38; 200 mg/kg/day i.p.) [%] | inhibition in vivo at 200 mg/kg (HCT116; 200 mg/kg/day i.p.) [%] | Growth inhibition ratio (colon 38; 50 mg/kg/day i.p.) [%] | inhibition in vivo at 100 mg/kg (HCT116; 100 mg/kg/day i.p.) [%]
1 | 2 (≈ 5.97 µM) | Nc1ccc(S(=O)(=O)Nc2cnc3c(Cl)cccc3n2)cc1 [CQS, 2-sulfanylamido-5-chloroquinoxaline, reference compound] | 53 | 33 | – | –
2 | 0.23 (≈ 0.715 µM) | Nc1ccc(S(=O)(=O)Nc2cccc3c(Cl)c[nH]c23)cc1 [Example 3] | – | – | 94 | –
3 | 0.25 (≈ 0.737 µM) | CC(=O)c1ccc(S(=O)(=O)Nc2cccc3c(C#N)c[nH]c23)cc1 [Example 42] | – | – | 98 | –

Further lines, the compound ahead of its results:

Row | SMILES | IC50 (colon 38 cells) [µg/mL] | Growth inhibition ratio (colon 38; 200 mg/kg/day i.p.) [%] | inhibition in vivo at 200 mg/kg (HCT116; 200 mg/kg/day i.p.) [%] | Growth inhibition ratio (colon 38; 50 mg/kg/day i.p.) [%] | inhibition in vivo at 100 mg/kg (HCT116; 100 mg/kg/day i.p.) [%]
4 | N#Cc1ccc(S(=O)(=O)Nc2cccc3c(Cl)c[nH]c23)cc1 [Example 10] | 0.13 (≈ 0.392 µM) | – | – | 94 | –
5 | N#Cc1c[nH]c2c(NS(=O)(=O)c3cccc(Cl)c3)cccc12 [Example 17] | 0.13 (≈ 0.392 µM) | – | – | 94 | –
6 | NC(=O)c1ccc(S(=O)(=O)Nc2cccc3c(Cl)c[nH]c23)cc1 [Example 29] | 0.19 (≈ 0.543 µM) | – | – | 97 | 80

From patent US5721246A, “Heterobicyclic sulfonamide and sulfonic ester derivatives” (Eisai Co., Ltd., priority 1993, dated 1998)
